Data reported in paper PMC7992105 (Medicinal chemistry research : an international journal for …, 2020).

Target: CB2 (cannabinoid receptor subtype 2) (Homo sapiens, UniProt P34972)
Assay type: binding

Sequence of CB2 (cannabinoid receptor subtype 2) (P34972 whole entry): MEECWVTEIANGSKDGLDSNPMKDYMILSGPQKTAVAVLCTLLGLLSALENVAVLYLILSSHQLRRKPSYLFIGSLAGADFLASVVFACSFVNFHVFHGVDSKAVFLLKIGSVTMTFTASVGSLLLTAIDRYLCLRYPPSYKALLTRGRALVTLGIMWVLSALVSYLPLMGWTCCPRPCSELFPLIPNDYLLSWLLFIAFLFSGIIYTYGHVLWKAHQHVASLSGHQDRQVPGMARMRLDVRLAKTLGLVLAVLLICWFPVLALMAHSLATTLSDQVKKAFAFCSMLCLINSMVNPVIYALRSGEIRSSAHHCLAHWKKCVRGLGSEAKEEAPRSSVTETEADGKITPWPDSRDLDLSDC

SMILES	Ki [µM]
O=C1c2ccccc2NC(=N/N=C/c2c[nH]c3ccccc23)[C@@H]2CCCN12 [4h, (S,E)-11-[2-(3-indolylmethylene)hydrazono]-pyrrolo[2,1-c][1,4]benzodiazepine]	4.7
O=C1c2ccccc2NC(=N/N=C/c2cccs2)[C@@H]2CCCN12 [4g, (S,E)-11-[2-(2-thiophenylmethylene)hydrazono]-pyrrolo[2,1-c][1,4]benzodiazepine]	0.49
